Values quoted from earlier work in patent US9314447B2 (Lupin Atlantis Holdings, S.A., priority 2012, dated 2016).

Conditions: in vivo

elimination half-life: about 20 hours
Compound: CC(C)(Oc1ccc(C(=O)c2ccc(Cl)cc2)cc1)C(=O)O [Fenofibric acid]
